# According to US20250064773A1, “TARGETING ERO1 ALPHA WITH AURONE DERIVATIVES” (West Virginia University Board of Governors on behalf of …, priority 2021, published 2025):
# Test system: U266
# Assay: MTT viability assay, U266
# Format: cell-based
# Details: Homo sapiens, U-266, Multiple Myeloma, read-out: IC50 Avg ± s.d. (n = 3), U266
# Text: Cell Lines: PC-9 cell line used was obtained from Sigma Aldrich and grown in RPMI 1640 medium with 10% fetal bovine serum and 1% penicillin/streptomycin. HCC4006, U266, MM1.s, and Beas-2B cell lines were obtained from ATCC and cultured in either RPMI 1640 or DMEM with 10% fetal bovine serum and 1% penicillin/streptomycin. All cell lines were also checked for mycoplasma every six months and subjected to short tandem repeat (STR) analysis for cell line validation. CRISPR Cas9: CRISPR Guide RNA 2 targeting ERO1α and CRISPR Guide RNA 4 were purchased from Genscript in the pLentiCRISPR V2 plasmid containing puromycin/ampicillin selection marker. Lentivirus was made from HEK 293T cells by co-transfection with GuideRNA of interest, pVSVG, and pPAX2 plasmids. […] Plate was then read on the BioTek Cytation 5 at 530/590 nm. […] Plate was then read at 570 nm. Treated wells were all compared to DMSO control wells to calculate percent growth inhibition and the IC50 was calculated using GraphPad (log(inhibitor) vs growth inhibition). […] Images were then quantified using ImageJ. […] Cells were aliquoted at 1 million cells per PCR tube in PBS and heated in Bio-Rad T100 thermal cycler at indicated temperatures (RT, 46° C., 48° C., 50° C., 52° C., 54° C., 56°, 58° C., and 60° C.) for 3 minutes and aggregation temperature was determined by western blot analysis. […]
compound,measurement,value
CN(C)c1ccc(/C=C2\Oc3cc(O)ccc3C2=O)cc1 [Compound T151742],IC50,8.93 ± 1.13 µM
